Consider nine compounds from publication PMC9458095, “In Vitro Evaluation of In Silico Screening Approaches in Search for Selective ACE2 Binding Chemical Probes” (Molecules, 2022).

Experiment [1] has as its target T1, ACE2 (Homo sapiens, UniProt Q9BYF1).
T1 construct: purchased Abcam ab273373
Briefly: ACE2 inhibitor screening kit (Abcam ab273373), fluorescence enzymatic assay, MCA-based peptide substrate. To be noted: for inhibition at 20 µM: 20 µM final concentration, n = 1, 25 µL, read-out: Inhibition% (primary screen hits). The experiment is classed as biochemical. An excerpt:
Despite the commercial availability of ACE2 Inhibitor Screening Kits the optimal HTS protocols are still not published and their validation is still needed. Among available kits the Abcam, ab273373 was used. This assay is based on the ability of active angiotensin-converting enzyme (ACE2) to cleave a synthetic MCA-based peptide substrate (the structure not disclosed by the manufacturer) and release a free fluorophore. The released fluorophore can be easily quantified using a standard fluorescence microplate reader. During this screening campaign, the next milestones were estimated: (i) optimization of the test compounds solutions used volume (without loss of performance and analytical signal recognition); (ii) optimization of reaction volume and concentrations of the reagents; (iii) determination of IC50 for known inhibitor MLN-4760 (EN300-22203532) and reference inhibitor from the kit (the structure not disclosed by manufacturer) in new validated conditions; (iv) primary screening of 577 selected compounds; (v) hit confirmation; (vi) dose-response curve (DRC) of confirmed hits.
The commercial Abcam (ab273373) Angiotensin II Converting Enzyme (ACE2) Inhibitor Screening Kit and 384-well 3544 Corning low volume, black clear bottom plates were used. The reagent preparation was performed in accord with kit instruction. In order to prepare the required enzyme concentration, we dissolved […] of stock enzyme solution (concentration in stock and MW not disclosed) in 198 µL of ACE2 Dilution Buffer (provided by the Manufacturer), then aliquoted the entire volume into 25 µL and frozen at −70 °C. A substrate solution calculated for one assay well contained 0.5 µL of stock Substrate solution and 9.5 µL of ACE2 Assay Buffer, stored at −70 °C. Reference inhibitor from the kit (five µL in stock, structure, and MW not disclosed) was not aliquoted, 50 µL of ACE Assay Buffer should be added directly before the experiment.
Primary screen assay conditions. Volume: 25 µL; Concentrations: enzyme and substrate solutions prepared according to the instructions and further diluted both to 1:2 in the Assay mixture. Assay buffer: provided by the Manufacturer (composition not disclosed, see SI for reference). Compounds: 20 µM final concentrations in the Assay mixture, n = 1. Reference Inhibitors: (1) Ref. inhibitor provided by the Manufacturer, 300 nM, (n = 4); (2) Compound from Enamine library EN300-22203532, 2.5 nM, (n = 4). Temperature: 25 °C. The enzyme solution was added into corresponding plate wells (columns 1–22), and buffer was added into wells corresponding to negative (Enzyme) control (columns 23, 24). Plates were incubated for 15 min at 25 °C. Then Substrate solution was added to all experimental wells. Plates were centrifuged and measurement started in kinetic mode (Exc/Em 320/420 nm). Results processing: two time points were chosen from kinetic curves for all wells and corresponding RFU values were obtained. ΔRFU/Δt were calculated for each curve and % of inhibition values were calculated from the equation: 100%—ΔRFU of sample/ΔRFU of Enzyme control*100%, according to the recommendation of the Manufacturer.
DRC and IC50 calculations. Concentrations: enzyme and substrate solutions were diluted both to 1:2 in the Assay mixture. Assay buffer: provided by the Manufacturer (composition not disclosed). Temperature: 25 °C. Compounds: 2-fold titrated from 100 µM, n = 4. Reference Inhibitors: (1) Ref. inhibitor Abcam 2-fold titrated from 1.5 µM, (n = 4); (2) Ref. inhibitor EN300-22203532, 2-fold titrated from 20 nM, (n = 4). Compounds were incubated with enzyme for 15 min. Plates were measured in kinetic mode (Exc/Em 320/420 nm). […]

The target in experiment [2] is T1, ACE2. The experiment is described as above. The experiment is classed as biochemical. Particulars: DRC measured three times each, 3-fold titration, 25 µL, enzyme and substrate 1:2; read-out: IC50 of reference inhibitors in optimized conditions.
A further experiment concerns human ACE2 (CHEMBL3736). Particulars: ChEMBL 26, cited from earlier work.
Setting [3] is: dose-response, 2-fold titrated, n = 4, 15 min incubation with enzyme, 25 °C, enzyme and substrate 1:2, read-out: IC50 (DRC, Figure 9).
The mark [4] stands for this setting: dose-response of confirmed hits, as in Figure 10, read-out: IC50(ACE2).

Like-named read-outs stand apart in the source and are kept apart here.

T1 sequence (Q9BYF1 18-805): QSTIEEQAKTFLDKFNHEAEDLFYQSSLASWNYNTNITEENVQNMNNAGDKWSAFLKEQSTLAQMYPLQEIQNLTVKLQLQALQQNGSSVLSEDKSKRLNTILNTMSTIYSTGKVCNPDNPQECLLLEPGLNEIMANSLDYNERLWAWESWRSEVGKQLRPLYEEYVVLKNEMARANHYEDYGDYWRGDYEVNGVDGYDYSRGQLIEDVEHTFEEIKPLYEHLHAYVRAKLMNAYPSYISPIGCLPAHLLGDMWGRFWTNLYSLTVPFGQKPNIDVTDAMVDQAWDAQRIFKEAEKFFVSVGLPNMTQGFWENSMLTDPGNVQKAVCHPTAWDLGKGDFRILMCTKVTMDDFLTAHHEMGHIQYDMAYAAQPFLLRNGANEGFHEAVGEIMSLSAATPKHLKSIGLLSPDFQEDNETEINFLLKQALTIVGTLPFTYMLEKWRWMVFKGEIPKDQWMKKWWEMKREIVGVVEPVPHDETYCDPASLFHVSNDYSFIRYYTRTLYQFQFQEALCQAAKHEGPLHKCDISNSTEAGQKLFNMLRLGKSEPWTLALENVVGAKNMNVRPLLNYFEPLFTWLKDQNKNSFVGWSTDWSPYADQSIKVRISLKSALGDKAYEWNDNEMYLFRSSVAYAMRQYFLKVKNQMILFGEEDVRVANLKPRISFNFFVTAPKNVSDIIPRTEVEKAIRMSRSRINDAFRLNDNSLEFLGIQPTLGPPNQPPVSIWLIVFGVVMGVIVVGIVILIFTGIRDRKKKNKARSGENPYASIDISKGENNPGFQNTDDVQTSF

Consider `Cc1ccc2nc(-c3ccc(NC(=O)CCC(=O)O)cc3)sc2c1` [Compound 2, Cc1ccc2nc(sc2c1)-c1ccc(NC(=O)CCC([O-])=O)cc1], for which the inhibition (as a rule, the share of the control response that was lost under treatment) at 20 µM at ACE2 [1] (enzyme and substrate 1:2) came out at 74.1%. Moreover, at ACE2 [1] (setting [3]), the IC50 (in general, the concentration at which inhibition is half-maximal) stood at 110 µM.
As to `O=C(NC1CN(c2ccccc2)C1=O)c1ncccc1O` (centres unmarked) [Compound 7], at ACE2 [1] (enzyme and substrate 1:2), the inhibition at 20 µM came out at 52.1%. Besides, the IC50 on ACE2 [1] (setting [4]) turned out to be 269 µM.
In the case of `CC(C)C[C@H](N[C@@H](Cc1cncn1Cc1cc(Cl)cc(Cl)c1)C(=O)O)C(=O)O` [MLN-4760, reference compound], the IC50 at ACE2 [1] (setting [3]) is 0.2 µM; on ACE2 [2], 0.0009 to 0.0025 µM; in the experiment with human ACE2 (CHEMBL3736) (known selective ACE2 inhibitor), 0.00044 µM. For the same compound, the “%inh_Ref EN300-22203532, Plate 1” value on ACE2 [1] (primary screen QC, 2.5 nM, n = 4, plate 1) came out at 69.9%. Further, the “%inh_Ref EN300-22203532, Plate 2” value on ACE2 [1] (primary screen QC, 2.5 nM, n = 4, plate 2) came out at 72.2%.
In the case of `CC[C@@H](C)[C@H](S)C(=O)N[C@@H](Cc1ccc(OCc2ccc(F)c(F)c2)cc1)C(=O)O` [CHEMBL251808, CC[C@@H](C)[C@H](S)C(=O)N[C@@H](Cc1ccc(OCc2ccc(F)c(F)c2)cc1)C(O)=O], on human ACE2 (CHEMBL3736) (known selective ACE2 inhibitors), the Ki (usually a measure of affinity in units of concentration, obtained from inhibition or displacement) was 0.00085 µM.
As for `Cc1ccc(CCC2CCN(C(=O)CN3CCCC3C(=O)O)CC2)cc1` (centres unmarked) [Compound 4], the inhibition at 20 µM at ACE2 [1] (enzyme and substrate 1:2) worked out at 54%. Further, at ACE2 [1] (setting [4]), the IC50 was 16.8 µM.
In the same order, the values of `O=C(O)CSc1ccc(C(=O)/C=C/c2cnn(-c3ccccc3)c2)cc1F` [Compound 5, OC(=O)CSc1ccc(cc1F)C(=O)C=Cc1cnn(c1)-c1ccccc1] are 29.8% and 53.6 µM.
In the same order, the values of `O=C(O)CC(NC(=O)c1ccc(-c2ccc(F)cc2)o1)c1ccc(F)cc1` (centres unmarked) [Compound 3] are 28.9% and 46.4 µM.
As to `CCC(C(=O)O)[S+]([O-])Cc1csc(-c2ccc3c(c2)OCO3)n1` (centres unmarked) [Compound 6], the inhibition at 20 µM at ACE2 [1] (enzyme and substrate 1:2) was found to be 50.1%. Moreover, at ACE2 [1] (setting [3]), the IC50 was found to be 67.3 µM.
On to `CC(NC(=O)CCCCC(=O)O)c1ccc(-c2ccc(N(C)C)cc2)cc1` (centres unmarked) [Compound 1], for which the inhibition at 20 µM on ACE2 [1] (enzyme and substrate 1:2) came to 38.8%. In addition, the IC50 on ACE2 [1] (setting [4]) worked out at 45.8 µM.
